This is an account of results in patent US20200216463A1, “THAILANSTATIN ANALOGS” (priority 2017, published 2020).

One assay concerns HCT 116 cells. Put plainly: In vitro cytotoxicity, CellTiter-Glo, 72 h (Example 11). The class given is cell-based. Particulars: Homo sapiens, HCT-116, 72 h. The procedure: Alternatively, the in vitro cytotoxicity of the compounds of the invention may be measured as described in this example. 180 μl of HCT 116 cells (ATCC, Cat # CCL-247) in McCoy's 5a Medium Modified (Sigma-Aldrich), St. Louis, Mo.)+10% fetal bovine serum were seeded at a density of 5,000 cells/well in a white opaque 96-well plate and incubated for 24 hours at […] in a 5% CO2 incubator. Twenty-four hours post cell seeding, 20 μl of 10× test compounds were diluted such that the final concentrations of the test compounds were in μM concentration. Half log dilutions were used, starting from 10 μM through 0.0001 μM. Puromycin and untreated cells were used as […]. The cells were incubated with the compounds for 72 hours at […] in a 5% CO2 incubator. After 72 hrs, 100 μl/well of CellTiter-Glo® Luminescent Cell Viability Assay reagent (Promega, Inc., Madison, Wis.; Cat # G7573) was added to the plates and incubated at room temperature for 30 minutes. The luminescence signals were captured using EnVision 2105 Multimode Plate Reader (PerkinElmer, Waltham, Mass.). The data were analyzed using non-linear regression curve fit (sigmoidal dose response) in GraphPad Prism software (GraphPad Software, La Jolla, Calif.) by plotting the concentration of drug on the X-axis and the mean % inhibition values on the Y-axis.
On the technique in general: ATP-based viability assays read luminescence as a measure of living cells.

The next assay concerns PANC 05.04. Description: In vitro cytotoxicity on pancreatic cancer cell line (Example 12). The class given is cell-based, human. The procedure:
(§1) Various cancer cell lines were obtained from the American Type Culture Collection (ATCC)). The cells were cultured in a humidified 5% CO2 incubator in a media consisting of RPMI 1640, L-glutamine, and 10% FBS. The cells were passaged as needed using standard tissue culture techniques. The cells were harvested and plated out into 96-well tissue culture treated plates at a density of 5000 cells per well. After allowing the cells to equilibrate for ˜24 hr in a humidified 5% CO2 incubator, the cells were treated with the test compounds at the indicated concentrations. The cells were exposed to the test compounds for three days with no media change. After the treatment period, CellTiter-Glo) Luminescent Cell Viability Assay reagent solution (Promega, Inc., Madison, Wis.; Cat. # G7573) was introduced to each well. The Cell TiterGlo-containing plates were then read on a SpectroMax® iD3 Multi-Mode Microplate reader (Molecular Devices, LLC, San Jose, Calif.). The degree of luminescence was dictated by the abundance of live cells.

In another assay the test system is PANC 10.05. The description is as above. The format is cell-based, human. On the procedure:
as §1

Consider `COC(=O)C[C@@H]1C[C@@]2(CO2)[C@H](O)[C@@H](/C=C/C(C)=C/C[C@@H]2O[C@H](C)[C@H](NC(=O)/C=C\C(C)c3cc(OC)no3)C[C@@H]2C)O1` (stereo partly drawn) [Compound 5, Methyl 2-((3R, 5S, 7R, 8R)-8-hydroxy-7-((1E, 3E)-5-((2S, 3S, 5R, 6R)-5-((Z)-4-(3-methoxyisoxazol-5-yl)pent-2-enamido)-3,6-dimethyltetrahydro-2H-pyran-2-yl)-3-methylpenta-1,3-dienyl)-1,6-dioxaspiro[2.5]octan-5-yl)acetate], for which the IC50 in the assay with HCT 116 cells came out at 310 nM.
`CC(=O)O[C@@H](C)/C=C\C(=O)N[C@@H]1C[C@H](C)[C@H](C/C=C(C)/C=C/[C@H]2O[C@H](CC(=O)O)C[C@@]3(CO3)[C@@H]2O)O[C@@H]1C` [Thailanstatin A]: the IC50 with PANC 05.04 was 3 nM; in the assay with PANC 10.05 it was 4 nM.

The term IC50 denotes the point on the concentration scale where inhibition reaches its midpoint. Read a high IC50 as lower potency.
